Laboratory results from publication PMC10110893, “[…]-derived synthetic cannabinoids inhibit T-type calcium channels with divergent effects on seizures in rodent models of epilepsy” (Frontiers in Physiology, 2023).
Like-named read-outs stand apart in the source and are kept apart here.

Legend:
[1] = molecular target: T1, human Cav3.2 (Homo sapiens, UniProt O95180); assay: FLIPR calcium flux assay, Cav3.2; format: cell-based
T1 construct: expressed in transfected cells; host or cells: HEK293 FlpIn T-Rex cells (Invitrogen)
T1 sequence (O95180 whole entry): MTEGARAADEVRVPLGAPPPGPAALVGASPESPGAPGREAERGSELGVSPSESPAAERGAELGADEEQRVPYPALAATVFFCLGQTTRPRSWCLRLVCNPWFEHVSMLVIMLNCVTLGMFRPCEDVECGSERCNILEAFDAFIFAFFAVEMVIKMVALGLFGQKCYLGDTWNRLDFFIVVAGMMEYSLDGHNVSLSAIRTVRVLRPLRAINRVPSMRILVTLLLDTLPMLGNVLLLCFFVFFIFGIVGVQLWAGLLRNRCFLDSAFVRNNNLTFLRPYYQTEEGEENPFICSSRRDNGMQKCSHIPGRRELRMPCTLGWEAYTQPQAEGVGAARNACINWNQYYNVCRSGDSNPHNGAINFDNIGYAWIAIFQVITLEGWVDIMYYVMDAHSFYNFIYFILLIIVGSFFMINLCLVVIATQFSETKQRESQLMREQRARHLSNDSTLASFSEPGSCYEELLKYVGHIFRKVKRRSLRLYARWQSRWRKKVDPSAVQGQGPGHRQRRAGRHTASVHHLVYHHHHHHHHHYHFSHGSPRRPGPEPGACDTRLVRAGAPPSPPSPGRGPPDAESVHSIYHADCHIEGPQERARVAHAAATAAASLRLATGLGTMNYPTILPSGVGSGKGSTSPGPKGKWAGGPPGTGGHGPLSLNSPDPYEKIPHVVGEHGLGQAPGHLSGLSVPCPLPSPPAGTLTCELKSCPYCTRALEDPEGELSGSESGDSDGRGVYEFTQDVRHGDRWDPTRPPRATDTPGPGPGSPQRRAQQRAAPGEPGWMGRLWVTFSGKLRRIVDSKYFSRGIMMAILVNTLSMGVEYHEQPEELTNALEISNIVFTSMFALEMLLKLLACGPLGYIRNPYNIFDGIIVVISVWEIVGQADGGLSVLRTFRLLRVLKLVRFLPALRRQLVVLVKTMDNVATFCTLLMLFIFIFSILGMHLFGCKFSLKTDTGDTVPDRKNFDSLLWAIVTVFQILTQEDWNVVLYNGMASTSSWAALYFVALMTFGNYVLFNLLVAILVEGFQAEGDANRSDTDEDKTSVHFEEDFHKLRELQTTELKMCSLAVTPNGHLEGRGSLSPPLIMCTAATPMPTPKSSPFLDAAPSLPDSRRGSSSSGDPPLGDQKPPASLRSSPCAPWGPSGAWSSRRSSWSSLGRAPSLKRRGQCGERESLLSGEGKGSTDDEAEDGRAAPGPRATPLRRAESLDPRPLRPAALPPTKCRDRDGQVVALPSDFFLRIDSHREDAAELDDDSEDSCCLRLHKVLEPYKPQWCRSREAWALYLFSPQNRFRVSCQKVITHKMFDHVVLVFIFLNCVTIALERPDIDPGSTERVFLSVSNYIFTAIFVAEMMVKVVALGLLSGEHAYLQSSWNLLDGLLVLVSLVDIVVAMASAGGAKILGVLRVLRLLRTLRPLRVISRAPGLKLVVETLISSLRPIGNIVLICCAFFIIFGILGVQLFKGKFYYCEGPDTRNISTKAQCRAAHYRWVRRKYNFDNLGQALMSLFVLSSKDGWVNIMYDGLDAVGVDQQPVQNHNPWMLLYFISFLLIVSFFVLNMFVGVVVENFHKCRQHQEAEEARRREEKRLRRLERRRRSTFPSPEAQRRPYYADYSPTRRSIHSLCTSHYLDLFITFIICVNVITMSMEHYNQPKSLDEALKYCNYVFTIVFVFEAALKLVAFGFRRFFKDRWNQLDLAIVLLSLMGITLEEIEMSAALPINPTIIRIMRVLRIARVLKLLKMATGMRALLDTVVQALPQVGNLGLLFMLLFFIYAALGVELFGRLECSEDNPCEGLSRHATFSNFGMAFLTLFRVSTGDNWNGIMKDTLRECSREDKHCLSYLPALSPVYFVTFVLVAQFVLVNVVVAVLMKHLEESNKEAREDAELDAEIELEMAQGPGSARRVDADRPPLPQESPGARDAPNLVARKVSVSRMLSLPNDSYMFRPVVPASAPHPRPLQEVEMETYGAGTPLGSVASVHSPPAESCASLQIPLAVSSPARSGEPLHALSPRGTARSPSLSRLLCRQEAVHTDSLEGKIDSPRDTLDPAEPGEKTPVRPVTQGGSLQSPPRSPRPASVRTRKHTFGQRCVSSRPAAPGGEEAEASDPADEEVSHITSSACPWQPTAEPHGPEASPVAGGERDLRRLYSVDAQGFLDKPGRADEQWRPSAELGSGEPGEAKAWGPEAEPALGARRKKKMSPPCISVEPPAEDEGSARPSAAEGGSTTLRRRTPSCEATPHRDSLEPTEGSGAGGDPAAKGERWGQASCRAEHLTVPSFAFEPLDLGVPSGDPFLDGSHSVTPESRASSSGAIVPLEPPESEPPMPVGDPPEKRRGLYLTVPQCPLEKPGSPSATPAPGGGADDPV
Description: HEK293 FlpIn T-Rex cells (Invitrogen, CA, United States) stably expressing human Cav3.1, Cav3.2, or Cav3.3 were maintained in Dulbecco’s Modified Eagle Medium (DMEM) supplemented with 10% foetal bovine serum (FBS), 1% penicillin-streptomycin (P/S) at 37°C, and 5% CO2 as previously described ([Bladen et al., 2021]; [Udoh et al., 2022]). Hygromycin (80 μg/mL) and blasticidin (15 μg/mL) were used as selection antibiotics and cells were passaged at 80% confluency. For experiments, cells were resuspended in Leibovitz’s L-15 media (containing 1% FBS, 1% P/S, 15 mM glucose, 2 μg/mL tetracycline), plated in black, clear-bottomed poly-D-lysine-coated 96-well plates (90 μL) (Corning, NY, United States), and incubated overnight in ambient air at 37°C. All compounds tested in cellular assays were prepared as stock solutions in DMSO and final DMSO concentration was 0.1%.
Intracellular calcium flux was measured using a fluorometric imaging plate-reader (FLIPR) Calcium 5 Assay Kit and FlexStation 3 Microplate Reader (Molecular Devices, San Jose, United States). […]
Fluorescence readings were taken at 2 s intervals (λ excitation = 485 nm, λ emission = 525 nm). […] Baseline fluorescence averaged over the 20 s interval preceding CaCl2 addition was subtracted and normalized to the vehicle response. Changes in fluorescence were measured in relative fluorescence units (RFU). […]

[2] = Pharmacokinetics in mouse plasma and brain after single i.p. injection; format: in vivo; conditions: both sexes, 10 mg/kg i.p.; for AUC: wildtype F1, mouse, in vivo, 10 mg/kg
Description: SB2193 and SB2193F were prepared in ethanol-Tween 80%–0.9% saline (1:1:18 ratio) and valproic acid in 0.9% saline. All doses were completely soluble in this vehicle except for the 100 mg/kg SB2193 dose, which was a suspension.
Male and female wildtype F1 mice aged 21–28 days postnatal received a single i. p. injection of 10 mg/kg SB2193 or SB2193F. At selected timepoints (15–240 min), mice were anesthetised with isoflurane, blood was collected via cardiac puncture and whole brains were harvested. Brains were snap frozen on dry ice, and blood plasma was isolated via centrifugation (4,000 g for 10 min, 4^○C). Brain and plasma samples were stored at −80°C until assayed.
(§1) Plasma samples (50 μL) were spiked with an internal standard (diazepam) and vortexed with 1 M NaOH (50 μL) and methyl tert-butyl ether (1 mL) to achieve protein precipitation. The organic layer was isolated by centrifugation (4,000 g for 3 min) before being frozen for 60 min at −80°C, evaporated to dryness using N2, and reconstituted in 30% acetonitrile and 0.1% formic acid in water for analysis. Brain hemispheres were homogenised in a 10x w/v 1:1 methanol-water solution using a Biospec Tissue-Tearor (Bartlesville, United States) and centrifuged at 20,000 g for 30 min at 4°C. Supernatant (100 μL) was collected and prepared following the same method as plasma.
SB2193 and SB2193F concentrations in brain and plasma samples were assessed by high performance liquid chromatography-tandem mass spectrometry (HPLC-MS/MS) using a Shimadzu Nexera liquid chromatograph coupled with a Shimadzu 8,030 triple quadrupole mass spectrometer (Kyoto, Japan). Samples were run through a Zorbax C18 HPLC Column equipped with a Zorbax Eclipse XDB-C8 guard column (2.1 × 50 mm, 3.5 μm particle size; Agilent, Santa Clara, United States) with an injection volume of 10 μL using a gradient elution. Mobile phases of acetonitrile and 0.1% formic acid in water were delivered at a flow rate of 0.6 mL/min over 4.16 min, with a stepwise adjustment of mobile phase concentration gradient over time to optimise ion separation.
Quantification was achieved by comparing experimental samples to plasma and brain standards prepared with known concentrations of SB2193 or SB2193F. Samples were quantified against a 7-point standard curve (R ^2 > 0.98 for both analytes).
Concentrations of SB2193 or SB2193F in plasma and brain at each timepoint were averaged and concentration-time curves were generated using GraphPad Prism. Pharmacokinetic parameters were calculated using non-compartmental analysis. The linear-log trapezoidal method was used to calculate drug exposure (area under the curve, AUC) using equations previously described ([Hawkins et al., 2017]).

[3] = Brain concentration after sub-chronic administration in chow; format: in vivo, mouse; conditions: 5,000 mg/kg chow ad libitum P18–23, male and female mice, n = 10
Description: as §1
SB2193 and SB2193F concentrations in brain and plasma samples were assessed by high performance liquid chromatography-tandem mass spectrometry (HPLC-MS/MS) using a Shimadzu Nexera liquid chromatograph coupled with a Shimadzu 8,030 triple quadrupole mass spectrometer (Kyoto, Japan). […]
Quantification was achieved by comparing experimental samples to plasma and brain standards prepared with known concentrations of SB2193 or SB2193F. Samples were quantified against a 7-point standard curve (R ^2 > 0.98 for both analytes). […]

[4] = wildtype F1, in vivo, ip, mouse plasma

Question: For `CCCCCn1cc(C(=O)N2CCN(C(=O)OC(C)(C)C)CC2)c2ccccc21` [SB2193], which IC50 [1] is on record?
Answer: 5.9 µM

Question: And the Tmax [2, 4]?
Answer: ≤ 15 min

Question: What about the half-life [2, 4] of the same compound?
Answer: 29 min

Question: What about the Cmax ([2]; wildtype F1, in vivo, ip, mouse plasma, read-out: Cmax) of the same compound?
Answer: 750 ± 50 nM

Question: What about the Cmax ([2]; wildtype F1, in vivo, ip, mouse plasma, read-out: Cmax (μg/mL)) of the same compound?
Answer: 0.3 ± 0.02 µg/mL

Question: What about the Kp ([2]; wildtype F1, in vivo, ip, mouse, read-out: brain-plasma ratio) of the same compound?
Answer: 2.7

Question: What about the Tmax ([2]; wildtype F1, ip, mouse brain) of the same compound?
Answer: ≤ 15 min

Question: And the half-life ([2]; wildtype F1, ip, mouse brain)?
Answer: 28 min

Question: What about the Cmax ([2]; wildtype F1, ip, mouse brain, read-out: Cmax) of the same compound?
Answer: 3000 ± 1000 nM

Question: What about the Cmax ([2]; wildtype F1, ip, mouse brain, read-out: Cmax (μg/mL)) of the same compound?
Answer: 1.2 ± 0.4 µg/mL

Question: And the AUC ([2]; ip, mouse brain, brain concentration converted assuming density of 1 g/mL)?
Answer: 583 ng·h/mL

Question: And the AUC ([2]; ip, mouse plasma)?
Answer: 217 ng·h/mL

Question: And the brain concentration [3]?
Answer: 1700 ± 600 nM
